Laboratory results from paper PMC5450539, “Anti-Inflammatory Activity and Structure-Activity Relationships of Brominated Indoles from a Marine Mollusc” (Marine Drugs, 2017).
Several values for one entry are separate records, joined by “and”; a condition that tells them apart may be missing. Identical values can stand only once. Like-named read-outs stand apart in the source and are kept apart here.

Legend:
[1] = test system: 3T3 ccl-92 mouse fibroblast; test: Crystal violet cytotoxicity assay, 3T3 ccl-92; type: cell-based; settings: 24 h incubation; max test concentration 50 µg/mL; > = <50% reduction in viability at max
Description: All extract/compounds were dissolved in DMSO and tested at 5 different concentrations of 50, 10, 2, 0.4, and 0.08 μg/mL for all anti-inflammatory assays unless otherwise noted. The final concentration of DMSO was 0.35% v/v for extracts and compounds. All samples were tested in triplicate at each concentration and each assay was independently repeated at least 3 times. The concentrations used for the cytotoxicity assays were 50, 25, 12.5, 6.25. and 3.125 μg/mL.
To check for cytotoxicity of the extracts and compounds against RAW264.7 mouse macrophage and 3T3 ccl-92 mouse fibroblast cell lines, the crystal violet cytotoxicity test was used according to the published protocol. In brief, RAW264.7 cells were seeded with a density of 2 × 10^4 cells/well in a 96-well plate and then incubated for 18–24 h. The following day the compounds/extracts were added and then incubated for 24 h before the media was aspirated and the cells washed twice in a gentle stream of water. After removing the water, 50 µL of 0.5% crystal violet staining solution were added and the cells were incubated for 20 min at room temperature. The plate was then washed 4 times with water and air dried for 2 h. Finally, 200 μL of methanol was added to each well and incubated for 20 min at room temperature on a rocker. This was followed by measuring the optical density at 570 nm with a plate reader Anthos Zenyth 200rt (Anthos Labtec Instruments, Heerhugowaard, The Netherlands). Chlorambucil was used as a positive control.

[2] = test system: nitric oxide (NO) production; test: NO inhibition assay (Greiss) in LPS-stimulated RAW264.7 macrophages; type: cell-based, mouse; settings: for IC50: Mus musculus
Description: RAW264.7 macrophages were incubated 1 h with extracts/compounds prior to the addition of LPS. […] Then, 20 h after the addition of LPS, the supernatant was collected. […] The plates were incubated for 15–20 min in the dark, then read at 550 nm wavelength on an Anthos Zenyth 200rt (Anthos Labtec Instruments). Sodium nitrite was used to prepare a standard curve to quantify the nitrite from the absorbance readings in this assay. All data were processed in Microsoft Office Excel 2013 (MS) first to obtain descriptive statistics. One-way Analysis of Variance (ANOVA) followed by Dunnett’s multiple comparisons test was performed using GraphPad Prism version 6.00 for Windows (GraphPad Software, La Jolla, CA, USA, www.graphpad.com), with p < 0.05 considered significant.

[3] = test system: TNFα production; test: TNF-alpha inhibition assay (ELISA) in LPS-stimulated RAW264.7 macrophages; type: cell-based, mouse; settings: for IC50: Mus musculus
Description: The amount of TNFα was quantified in cell culture media using murine TNFα ELISA kits (BD bioscience). In brief, the RAW264.7 mouse macrophages (6 × 10^5 cells/mL) were stimulated with LPS (100 ng/mL) 1 h after treatment with several concentrations of extracts (0.08–50 μg/mL). After 18 h, the supernatant was collected and TNFα production was measured by reading the absorbance at 450 nm wavelength on an Anthos Zenyth 200rt microplate reader (Anthos Labtech Instruments). Dexamethasone at a concentration of 2.5 μM was used as a positive control, with a negative control of 0.35% DMSO.
All data were processed in Microsoft Office Excel 2013 (MS) first to obtain descriptive statistics. One-way Analysis of Variance (ANOVA) followed by Dunnett’s multiple comparisons test was performed using GraphPad Prism version 6.00 for Windows (GraphPad Software, La Jolla, CA, USA, www.graphpad.com), with p < 0.05 considered significant. The inhibitory concentration responsible for a 50% reduction in cell viability or production of inflammatory markers (IC50) was calculated using the regression analysis, Probit in SPSS v21.

[4] = test system: NFκB translocation; test: Assessment of NFκB translocation in LPS-stimulated RAW264.7; type: cell-based; settings: Mus musculus, RAW264.7, 40 µg/mL, LPS-stimulated RAW264.7, relative to DMSO + LPS
Description: This assay was performed according to the published protocol in Olivera et al.. RAW264.7 mouse macrophages were seeded at 400,000 cells/well in 800 μL in 4-well chambered slides and incubated overnight. The cells were then incubated with the test samples (40 μg/mL HBG extract, 6-bromoisatin, or 6-bromoindole) for 1 h prior to stimulation with LPS (700 ng/mL) for 30 min. After stimulation, the cells were washed with PBS and fixed with 3.7% paraformaldehyde for 15 min. […] The cells were washed with PBS and incubated with rabbit anti-p65 NFκB antibody (1:500) and goat anti-mouse IκB (1:500) overnight at 4 °C. The following day, the cells were washed again three times with PBS and incubated for 1 h with goat-anti-rabbit IgG conjugated with Alexa Fluor 594 (1:1000) and donkey anti-mouse IgG conjugated with Alexa fluor 488 (1:1000) at room temperature. Finally, the cells were washed with PBS then mounted with Prolong mounting media containing DAPI before visualising using the Olympus Flouview FVi10 confocal microscope (Olympus, Tokyo, Japan). Using ImageJ (v1.50i, National Institutes of Health, Bethesda, MD, USA), an outline was drawn around each nucleus by adjusting the colour threshold of DAPI. Mean fluorescence inside the nucleus was measured, along with several adjacent background readings. The total corrected cellular fluorescence (TCCF) was calculated by applying the equation TCCF = integrated density − (area of selected cell × mean fluorescence of background readings). This TCCF was then used to calculate the %inhibition of the NFκB translocation against the positive control where the cells were treated with LPS in the presence of the Vehicle (0.35% DMSO v/v) in Microsoft Office Excel 2013 (Redmond, WA, USA).

[5] = test system: NO production; parameters: method as in Matheus et al. [37]; settings: LPS and interferon-γ induced, RAW264.7; ref Matheus et al. [37]; cited from earlier work
[6] = test system: TNFα; parameters: method as in Matheus et al. [37]; settings: minimum effective dose not established; ref Matheus et al. [37]; cited from earlier work

SMILES: O=C1Nc2ccccc2C1=O [isatin]
- Cytotoxicity 3T3 ccl-92 (test concentration which causes toxicity) [1]: NA (not active at maximum test concentration 50 µg/mL)
- reduction of NO production ([2]; 50 µg/mL (maximum test concentration), relative to DMSO control): 34%
- IC50 ([2]; RAW264.7, LPS-stimulated RAW264.7, max test concentration 50 µg/mL, read-out: NO IC50): ~340 µM
- IC50 ([2]; RAW264.7, predicted, above maximum test concentration 50 μg/mL, read-out: predicted NO IC50): 63.3 µg/mL and 430 µM
- lowest concentration with significant inhibition of TNFα [3]: 0.5 µM
- IC50 ([3]; RAW264.7, LPS-stimulated RAW264.7, max test concentration 50 µg/mL, read-out: TNFα IC50): > 340 µM
- IC50 ([3]; RAW264.7, LPS-stimulated RAW264.7, read-out: TNFα IC50): > 50 mg/L
- IC50 ([3]; RAW264.7, predicted, above the maximum test concentration, read-out: predicted TNFα IC50): 717 µM
- inhibition at 40 µg/mL [4]: 45.7%
- concentrations significantly inhibiting NO production [5]: 10 to 100 µM
- concentration at which TNFα was inhibited [6]: 100 µM
